Experimental data from article PMC5458078, “Global mapping of CARM1 substrates defines enzyme specificity and substrate recognition” (Nature Communications, 2017).
Where two headings read alike, the source gives them in different places.

Key:
MCF7 cells = test: Quantitative nanoLC-MS/MS (TMT) of ADMA-containing peptides, CARM1 KO vs parental; assay type: cell-based, human; design: Fold change KO/WT: scale not given here
MCF7 CARM1 KO cells = test: Quantitative MS of ADMA-containing peptides in MCF7 CARM1 KO cells expressing CARM1 28-608 or CARM1 140-608, and in CARM1 KO; assay type: cell-based, human
[1] = ADMA-containing peptide, MCF7, CARM1 knockout (KO1-3) vs wild type (WT1-3), TMT 6-plex experiment #1
[2] = log2 scale ratio, mean of n = 3
[3] = ADMA-containing peptide, CARM1 knockout (KO) vs wild type (WT) MCF7 cells, 6-plex TMT experiment #1, three biological replicates each, sheet "MCF7"
[4] = difference of log2 means, CARM1 140-608 vs WT
[5] = difference of log2 means, KO vs WT
[6] = MCF7, CARM1 knockout vs wild type, n = 3 each
[7] = ratio on log2 scale, mean of 3 replicates
[8] = MCF7 CARM1 knockout vs wild type, 3 biological replicates each, values are on log2 scale
[9] = mean, CARM1 140-608 versus WT (log2 scale)
[10] = mean, CARM1 KO versus WT (log2 scale)
[11] = MCF7, CARM1 KO (KO1-KO3) vs wild type (WT1-WT3)
[12] = CARM1 140-608 vs WT, mean of 3 replicates (log2 scale)
[13] = KO vs WT, mean of 3 replicates (log2 scale)
[14] = CARM1 140-608 versus WT, mean of three replicates (log2)
[15] = KO versus WT, mean of three replicates (log2)
[16] = MCF7, CARM1 KO vs WT, three biological replicates each
[17] = CARM1 140-608 vs WT, mean of 3 replicates, log2
[18] = KO vs WT, mean of 3 replicates, log2
[19] = CARM1 KO vs wild type MCF7 cells, 3 biological replicates each
[20] = CARM1 140-608 versus WT, difference of mean log2 values
[21] = CARM1 KO versus WT, difference of mean log2 values

GAPHFrFIIAGR
Fold change KO/WT (MCF7 cells; [1]): -0.1995
CARM1 140-608/WT (MCF7 CARM1 KO cells; [2]): -0.6361
KO/WT (MCF7 CARM1 KO cells; [2]): -0.5643

EYFIPGTrLPPPTHGPQEYPPPPAVR
Fold change KO/WT (MCF7 cells; [3]): -1.126
CARM1 140-608/WT (MCF7 CARM1 KO cells; [4]): 0.04953
KO/WT (MCF7 CARM1 KO cells; [5]): -1.295

STNPELPPrLGPVPSGLSQK
Fold change KO/WT (MCF7 cells; [6]): -2.804
CARM1 140-608/WT (MCF7 CARM1 KO cells; [7]): -2.1
KO/WT (MCF7 CARM1 KO cells; [7]): -2.804

LLGQRPGPYDRPIGGrGGYYGAGR
Fold change KO/WT (MCF7 cells; [8]): -0.08078
CARM1 140-608/WT (MCF7 CARM1 KO cells; [9]): 0.09661
KO/WT (MCF7 CARM1 KO cells; [10]): 0.2187

FAPrGAPHFrFIIAGR
Fold change KO/WT (MCF7 cells; [1]): -0.1223
CARM1 140-608/WT (MCF7 CARM1 KO cells; [2]): -0.6829
KO/WT (MCF7 CARM1 KO cells; [2]): -0.5952

ANYNFrGMYNQrYHCPVPK
Fold change KO/WT (MCF7 cells; [1]): -3.002
CARM1 140-608/WT (MCF7 CARM1 KO cells): -2.05
KO/WT (MCF7 CARM1 KO cells): -3.002

APGPrGSYLGGYSAGR
Fold change KO/WT (MCF7 cells; [11]): -0.1976
CARM1 140-608/WT (MCF7 CARM1 KO cells; [12]): -0.09328
KO/WT (MCF7 CARM1 KO cells; [13]): -0.2416

SAPWNSFLPPPPPMPGPrLGPGKPGLK
Fold change KO/WT (MCF7 cells; [1]): -1.936
CARM1 140-608/WT (MCF7 CARM1 KO cells; [12]): -1.2
KO/WT (MCF7 CARM1 KO cells; [13]): -1.936

QPQPAQNVLAAPrLR
Fold change KO/WT (MCF7 cells; [3]): -1.672
CARM1 140-608/WT (MCF7 CARM1 KO cells; [14]): -0.6318
KO/WT (MCF7 CARM1 KO cells; [15]): -1.672

VrPVLNLPGPGPALPrALER
Fold change KO/WT (MCF7 cells; [3]): -2.391
CARM1 140-608/WT (MCF7 CARM1 KO cells; [4]): -2.008
KO/WT (MCF7 CARM1 KO cells; [5]): -2.391

TSSGLFPrIPLQPQAPVSSIGSPVGTPK
Fold change KO/WT (MCF7 cells; [16]): -2.869
CARM1 140-608/WT (MCF7 CARM1 KO cells; [17]): 0.8175
KO/WT (MCF7 CARM1 KO cells; [18]): -2.603

LrQQLQAK
Fold change KO/WT (MCF7 cells; [3]): -3.626
CARM1 140-608/WT (MCF7 CARM1 KO cells; [4]): -1.5575
KO/WT (MCF7 CARM1 KO cells; [5]): -2.723

APPGGLHAPrLSLEGAAR
Fold change KO/WT (MCF7 cells; [16]): -2.121
CARM1 140-608/WT (MCF7 CARM1 KO cells; [17]): -1.8169
KO/WT (MCF7 CARM1 KO cells; [18]): -2.946

DPFSQALSrCQLQQAAALNAQHK
Fold change KO/WT (MCF7 cells; [6]): -2.1
CARM1 140-608/WT (MCF7 CARM1 KO cells; [7]): -1.585
KO/WT (MCF7 CARM1 KO cells; [7]): -2.1

GTVVTPVQVPLLPVPSQPrPAVGPQrFPGPPEFPQHTPGPVPNSFSQPPrLPLQDQWrAPPPPQDR
Fold change KO/WT (MCF7 cells; [11]): -3.321
CARM1 140-608/WT (MCF7 CARM1 KO cells; [12]): -1.653
KO/WT (MCF7 CARM1 KO cells; [13]): -3.712

LGQDPYrLGHDPYR
Fold change KO/WT (MCF7 cells; [1]): -1.973
CARM1 140-608/WT (MCF7 CARM1 KO cells): -1.933
KO/WT (MCF7 CARM1 KO cells): -1.973

FGDMSYSIrHSISMPAMR
Fold change KO/WT (MCF7 cells; [1]): -3.258
CARM1 140-608/WT (MCF7 CARM1 KO cells; [2]): -2.806
KO/WT (MCF7 CARM1 KO cells; [2]): -3.258

SSYLESPrGPrFDGPR
Fold change KO/WT (MCF7 cells; [19]): -3.147
CARM1 140-608/WT (MCF7 CARM1 KO cells; [20]): -2.628
KO/WT (MCF7 CARM1 KO cells; [21]): -4.092

FDGQPGQPSLLPrFDGLHGQPGPrFER
Fold change KO/WT (MCF7 cells; [3]): -2.047
CARM1 140-608/WT (MCF7 CARM1 KO cells; [14]): -1.6986
KO/WT (MCF7 CARM1 KO cells; [15]): -2.399

ASAPAADPPrYTFAPSVSLNK
Fold change KO/WT (MCF7 cells; [3]): -4.884
CARM1 140-608/WT (MCF7 CARM1 KO cells; [14]): -4.581
KO/WT (MCF7 CARM1 KO cells; [15]): -6.091

SGIILrSPrPDFrPrEPFLSrDPFHSLK
Fold change KO/WT (MCF7 cells; [11]): -2.553
CARM1 140-608/WT (MCF7 CARM1 KO cells; [12]): -0.96
KO/WT (MCF7 CARM1 KO cells; [13]): -2.553

DYFPPGDFPGPPPAPFAMrNVYPPrGFPPYLPPrPGFFPPPPHSEGR
Fold change KO/WT (MCF7 cells; [6]): -2.577
CARM1 140-608/WT (MCF7 CARM1 KO cells; [7]): -0.7489
KO/WT (MCF7 CARM1 KO cells; [7]): -2.577

FIQPrPTLNQPPPPLIrPANSMPPR
Fold change KO/WT (MCF7 cells; [11]): -1.957
CARM1 140-608/WT (MCF7 CARM1 KO cells; [12]): 0.9302
KO/WT (MCF7 CARM1 KO cells; [13]): -1.231

GVVNTAVSAAVQAVrGrGrGTLTr
Fold change KO/WT (MCF7 cells; [1]): -0.6248
CARM1 140-608/WT (MCF7 CARM1 KO cells; [2]): -0.4677
KO/WT (MCF7 CARM1 KO cells; [2]): -0.6727

NAALGPSEPrLALAPVGPrAAMSASSEGPrLALASPrPILAPLCTPEGQK
Fold change KO/WT (MCF7 cells; [8]): -3.912
CARM1 140-608/WT (MCF7 CARM1 KO cells; [9]): -2.352
KO/WT (MCF7 CARM1 KO cells; [10]): -3.912

LLFQNLWKPrLNVP
Fold change KO/WT (MCF7 cells; [6]): -4.157
CARM1 140-608/WT (MCF7 CARM1 KO cells; [7]): -1.893
KO/WT (MCF7 CARM1 KO cells; [7]): -4.858

IAQPVrSFLQPPKPLSSLSTLR
Fold change KO/WT (MCF7 cells; [11]): -2.977
CARM1 140-608/WT (MCF7 CARM1 KO cells; [12]): -1.679
KO/WT (MCF7 CARM1 KO cells; [13]): -2.977

TVPMGGVrLVTPVTVSAVKPAVTTLVVK
Fold change KO/WT (MCF7 cells; [6]): -2.889
CARM1 140-608/WT (MCF7 CARM1 KO cells; [9]): -0.6483
KO/WT (MCF7 CARM1 KO cells; [10]): -2.889

TRNPFLTGLSAPSPTNPFGAGEPGrPTLNQMR
Fold change KO/WT (MCF7 cells; [6]): -1.766
CARM1 140-608/WT (MCF7 CARM1 KO cells; [7]): -1.179
KO/WT (MCF7 CARM1 KO cells; [7]): -1.766

TGALPGPGPLSNPrLGGLPGPGPMSNPR
Fold change KO/WT (MCF7 cells; [16]): -3.491
CARM1 140-608/WT (MCF7 CARM1 KO cells; [7]): -0.9797
KO/WT (MCF7 CARM1 KO cells; [7]): -1.901

YPLPPPSGrYNWN
Fold change KO/WT (MCF7 cells; [19]): -1.371
CARM1 140-608/WT (MCF7 CARM1 KO cells; [20]): -1.592
KO/WT (MCF7 CARM1 KO cells; [21]): -1.5401

AGSQGGrGGGAQAAAR
Fold change KO/WT (MCF7 cells; [16]): 0.4231
CARM1 140-608/WT (MCF7 CARM1 KO cells; [17]): 0.1432
KO/WT (MCF7 CARM1 KO cells; [18]): 0.7684

EIrYSLLPFANESGTSAAAEVNR
Fold change KO/WT (MCF7 cells; [8]): -3.011
CARM1 140-608/WT (MCF7 CARM1 KO cells; [4]): -1.601
KO/WT (MCF7 CARM1 KO cells; [5]): -3.011

LAQDPYrLGHDPYR
Fold change KO/WT (MCF7 cells; [1]): -0.6293
CARM1 140-608/WT (MCF7 CARM1 KO cells): -0.7785
KO/WT (MCF7 CARM1 KO cells): -0.6293
